According to patent publication US20110053908A1, “AZETIDINE-DERIVED COMPOUNDS, PREPARATION METHOD THEREFOR AND THERAPEUTIC USE OF SAME” (SANOFI-AVENTIS, priority 2008, published 2011):
Where a name gives a salt, the structure may show the parent alone.

Key:
[1] = molecular target: T1, CB1-type cannabinoid receptor (Mus musculus, UniProt P47746); experiment: inhibition of gastrointestinal transit induced by racemic CP55,940 in mice (charcoal bolus); assay type: in vivo; conditions: 1 mg/kg po; male CD1 mice; CP55,940 0.15 mg/kg ip; progression of charcoal bolus
T1 construct: male CD1 mice receive the test product per os; from tissue; host or cells: whole animal, male CD1 mice
From the text: Thirty minutes later, the animals are sacrificed by euthanasia (CO2/O2) and the intestine is dissected. The progression of the charcoal bolus in the intestine is expressed as percentage of the total length of the intestine.
Consequently, the compounds of the invention of formula (I) are in vitro and in vivo CB1-type cannabinoid receptor antagonists. Some compounds are active in vivo with regard to both the hypothermia test and the transit test, and some compounds show activities split up between the hypothermia test and the transit test.

human CB1 receptor = molecular target: T2, human CB1 receptor (Homo sapiens, UniProt P21554); experiment: intracellular cyclic AMP functional test in U373MG cells (HTRF cAMP Dynamic Kit); assay type: cell-based; conditions: U373MG cells naturally expressing the human CB1 receptor
T2 construct: U373MG cells naturally expressing the human CB1 receptor; endogenous in cells; host or cells: U373MG cells
Method: The compounds according to the invention have formed the subject of pharmacological assays which make it possible to determine the activity with regard to human CB1-type cannabinoid receptors. The effectiveness of the compounds of formula (I) was determined in a functional test in which the activity of the CB1 cannabinoid receptors is measured (intracellular cyclic AMP test). The test for detecting intracellular cyclic AMP in U373MG cells naturally expressing the human CB1 receptor was carried out as described in the reference: Bouaboula et al., 1995, J. Biol. Chem. 270: 13973-13980. The HTRF cAMP Dynamic Kit from CisBio was used to quantify the intracellular cyclic AMP. In this test, the IC50 values are between 0.001 μM and 2 μM.

CB cannabinoid receptor = molecular target: T3, CB cannabinoid receptor (Mus musculus, UniProt P47746); experiment: hypothermia induced by CB agonist racemic CP55,940 in mice (rectal temperature); assay type: in vivo; conditions: 3 mg/kg po; male CD1 mice; CP55,940 1.25 mg/kg i.p.; rectal temperature at 90 minutes
T3 construct: from tissue; host or cells: whole animal, male CD1 mice
Method: Other assays consisting in measuring the in vivo activity of the compounds of the invention were carried out. Their antagonist activity was shown by means of the model of […] induced by a CB cannabinoid receptor agonist (racemic CP55,940 ((1RS,3RS,4RS)-3-[2-hydroxy-4-(1,1-dimethylheptyl)phenyl]-4-(3-hydroxypropyl)cyclohexan-1-ol) at a dose of 1.25 mg/kg) in mice, according to the method described by Pertwee R. G. in Marijuana 84, Harvey D. J. eds., Oxford IRL
Press, 263-277 (1985). At time 0 min, the rectal temperature of male CD1 mice is measured before injection of the test product. At 30 minutes, a further measurement of the rectal temperature of the mice is taken and the racemic CP55,940 agonist ((1RS,3RS,4RS)-3-[2-hydroxy-4-(1,1-dimethylheptyl)phenyl]-4-(3-hydroxypropyl)cyclohexan-1-ol) (1.25 mg/kg i.p. in 10% cremophor) is administered. At 90 minutes, the rectal temperature is again measured. The results are expressed as % with respect to the control batched injected with CP 55,940 (minimum temperature) and to the carrier batch without treatment with CP55,940 (maximum temperature).

T1 sequence (P47746 whole entry): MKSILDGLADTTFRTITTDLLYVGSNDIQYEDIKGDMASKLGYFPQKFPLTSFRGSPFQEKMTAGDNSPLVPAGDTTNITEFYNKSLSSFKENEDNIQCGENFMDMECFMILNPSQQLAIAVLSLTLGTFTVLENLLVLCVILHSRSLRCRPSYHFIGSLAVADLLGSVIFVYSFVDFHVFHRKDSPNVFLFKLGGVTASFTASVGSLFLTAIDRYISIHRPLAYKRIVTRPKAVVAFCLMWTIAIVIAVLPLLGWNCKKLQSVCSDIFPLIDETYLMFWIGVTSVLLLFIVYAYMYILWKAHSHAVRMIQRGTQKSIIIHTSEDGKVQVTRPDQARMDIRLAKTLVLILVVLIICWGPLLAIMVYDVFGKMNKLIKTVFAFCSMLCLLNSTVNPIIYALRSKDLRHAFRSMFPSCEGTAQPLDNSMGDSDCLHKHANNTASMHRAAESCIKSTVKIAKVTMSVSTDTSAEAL
T2 sequence (P21554 whole entry): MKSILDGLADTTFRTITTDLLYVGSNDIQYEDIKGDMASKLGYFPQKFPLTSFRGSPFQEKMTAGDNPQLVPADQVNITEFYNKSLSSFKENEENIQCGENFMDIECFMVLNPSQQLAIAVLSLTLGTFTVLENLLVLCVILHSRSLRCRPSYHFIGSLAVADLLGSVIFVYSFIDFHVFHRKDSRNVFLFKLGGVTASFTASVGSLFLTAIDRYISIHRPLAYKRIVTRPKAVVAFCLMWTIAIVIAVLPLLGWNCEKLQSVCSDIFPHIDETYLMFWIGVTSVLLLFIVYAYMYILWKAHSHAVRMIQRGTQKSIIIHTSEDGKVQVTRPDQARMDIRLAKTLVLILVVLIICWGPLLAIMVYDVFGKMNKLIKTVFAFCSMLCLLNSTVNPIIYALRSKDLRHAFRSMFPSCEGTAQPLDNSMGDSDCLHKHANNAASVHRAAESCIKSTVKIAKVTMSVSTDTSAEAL
T3 sequence (P47746 whole entry): as the sequence (P47746 whole entry) above

| SMILES | percentage of inhibition [1] [%] | IC50 (human CB1 receptor) [nM] | percentage of inhibition (CB cannabinoid receptor) [%] | melting point [°C] |
| --- | --- | --- | --- | --- |
| CS(=O)(=O)N(c1cc(C(=O)N[C@H]2CCC[C@@H]2O)cc(C(F)(F)F)c1)C1CN(C(c2ccc(Cl)cc2)c2ccc(Cl)cc2)C1 (racemic) [compound 41, 3-({1-[bis(4-chlorophenyl)methyl]azetidin-3-yl} (methanesulphonyl)amino)-N-((1SR,2SR)-2-hydroxycyclopent-1-yl)-5-(trifluoromethyl)benzamide] | 91 | – | – | – |
| CS(=O)(=O)N(c1cc(F)cc(C(=O)N[C@H]2COC[C@@H]2O)c1)C1CN(C(c2ccc(Cl)cc2)c2ccc(Cl)cc2)C1 (racemic) [compound 47, 3-({1-[bis(4-chlorophenyl)methyl]azetidin-3-yl}(methanesulphonyl)amino)-5-fluoro-N-((3SR,4RS)-4-hydroxytetrahydrofuran-3-yl)benzamide] | – | 72 | – | – |
| CC(CO)NC(=O)c1cc(F)cc(N(C2CN(C(c3ccc(Cl)cc3)c3ccc(Cl)cc3)C2)S(C)(=O)=O)c1 (single isomer, unassigned; (+)) [Compound No. 25, (+)-3-({1-[Bis(4-chlorophenyl)methyl]azetidin-3-yl}(methanesulphonyl)amino)-5-fluoro-N-(2-hydroxy-1-methylethyl)benzamide] | – | – | 18 | 148 to 150 |
| CC1(C)OCC(CNC(=O)c2cccc(N(C3CN(C(c4ccc(Cl)cc4)c4ccc(Cl)cc4)C3)S(C)(=O)=O)c2)O1 (single isomer, unassigned; (-)) [Compound No. 5, (−)-3-({1-[Bis(4-chlorophenyl)methyl]azetidin-3-yl}(methanesulphonyl)amino)-N-(2,2-dimethyl-1,3-dioxolan-4-ylmethyl)benzamide] | – | 22 | – | – |
| CS(=O)(=O)N(c1cccc(C(=O)NCCO)c1)C1CN(C(c2ccc(Cl)cc2)c2ccc(Cl)cc2)C1 [Compound No. 7, 3-({1-[Bis(4-chlorophenyl)methyl]azetidin-3-yl}(methanesulphonyl)amino)-N-(2-hydroxyethyl)benzamide hydrochloride (1:1)] | – | 61 | – | – |
| C[C@@H](CO)NC(=O)c1cccc(N(C2CN(C(c3ccc(Cl)cc3)c3ccc(Cl)cc3)C2)S(C)(=O)=O)c1 [Compound No. 9, (+)-3-({1-[Bis(4-chlorophenyl)methyl]azetidin-3-yl}(methanesulphonyl)amino)-N-(2-hydroxy-1-methylethyl)benzamide] | 82 | 15 | 30 | 192 to 194 |
| CS(=O)(=O)N(c1cccc(C(=O)NC(CO)CO)c1)C1CN(C(c2ccc(Cl)cc2)c2ccc(Cl)cc2)C1 [Compound No. 17, 3-({1-[Bis(4-chlorophenyl)methyl]azetidin-3-yl}(methanesulphonyl)amino)-N-(2-hydroxy-1-(hydroxymethyl)ethyl)benzamide] | – | – | – | 192 to 194 |
| CS(=O)(=O)N(c1cc(F)cc(C(=O)NC(CO)CO)c1)C1CN(C(c2ccc(Cl)cc2)c2ccc(Cl)cc2)C1 [Compound No. 26, 3-({1-[Bis(4-chlorophenyl)methyl]azetidin-3-yl}(methanesulphonyl)amino)-5-fluoro-N-(2-hydroxy-1-(hydroxymethyl)ethyl)benzamide] | – | 20 | – | 144 to 146 |
| CC(CO)(CO)NC(=O)c1cc(F)cc(N(C2CN(C(c3ccc(Cl)cc3)c3ccc(Cl)cc3)C2)S(C)(=O)=O)c1 [Compound No. 27, 3-({1-[Bis(4-chlorophenyl)methyl]azetidin-3-yl}(methanesulphonyl)amino)-5-fluoro-N-(2-hydroxy-1-hydroxymethyl-1-methylethyl)benzamide] | 58 | – | – | 159 to 161 |
| CC(C)(O)CNC(=O)c1cccc(N(C2CN(C(c3ccc(Cl)cc3)c3ccc(Cl)cc3)C2)S(C)(=O)=O)c1 [compound 13, 3-({1-[bis(4-chlorophenyl)methyl]azetidin-3-yl}(methanesulphonyl)amino)-N-(2-hydroxy-2-methylprop-1-yl)benzamide] | – | – | – | 140 |
| CC(C)(CO)NC(=O)c1cccc(N(C2CN(C(c3ccc(Cl)cc3)c3ccc(Cl)cc3)C2)S(C)(=O)=O)c1 [compound 16, 3-({1-[bis(4-chlorophenyl)methyl]azetidin-3-yl}(methanesulphonyl)amino)-N-(2-hydroxy-1,1-dimethylethyl)benzamide] | – | – | – | 162 |
| CC(CO)(CO)NC(=O)c1cccc(N(C2CN(C(c3ccc(Cl)cc3)c3ccc(Cl)cc3)C2)S(C)(=O)=O)c1 [compound 18, 3-({1-[bis(4-chlorophenyl)methyl]azetidin-3-yl}(methanesulphonyl)amino)-N-[1,3-dihydroxy-2-methylprop-2-yl]benzamide] | – | 6 | – | 192 |
| CS(=O)(=O)N(c1cccc(C(=O)NC2(CCO)CC2)c1)C1CN(C(c2ccc(Cl)cc2)c2ccc(Cl)cc2)C1 [compound 21, 3-({1-[bis(4-chlorophenyl)methyl]azetidin-3-yl}(methanesulphonyl)amino)-N-[1-(2-hydroxyethyl)cyclopropyl]benzamide] | – | 38 | – | – |
| CS(=O)(=O)N(c1cc(F)cc(C(=O)NCC(O)C(F)(F)F)c1)C1CN(C(c2ccc(Cl)cc2)c2ccc(Cl)cc2)C1 (centres unmarked) [compound 30, 3-({1-[bis(4-chlorophenyl)methyl]azetidin-3-yl}(methanesulphonyl)amino)-5-fluoro-N-(3,3,3-trifluoro-2-hydroxyprop-1-yl)benzamide] | – | 66 | – | – |
| C[C@@H](CO)NC(=O)c1cc(N(C2CN(C(c3ccc(Cl)cc3)c3ccc(Cl)cc3)C2)S(C)(=O)=O)cc(C(F)(F)F)c1 [compound 36, (+)-3-({1-[bis(4-chlorophenyl)methyl]azetidin-3-yl}(methanesulphonyl)amino)-N—((S)-1-hydroxyprop-2-yl)-5-(trifluoromethyl)benzamide] | 85 | 16 | – | – |
